Experimental data taken from patent US20190247376A1, “NICOTINIC ACETYLCHOLINE RECEPTOR AGONIST ATTENUATES ILC2-DEPENDENT AIRWAY HYPERREACTIVITY” (University of Southern California, priority 2016, published 2019).

What was measured:
[1] = system: lung ILC2s; test: In vitro stimulation of murine lung ILC2s, IL-5 and IL-13 by ELISA, viability by 7-AAD; format: cell-based, mouse
Procedure: FIGS. 2A-2C: α7nAChR agonist suppresses IL-5 and IL-13 production from ILC2s in vitro. BALB/cByJ mice were intranasally challenged with recombinant mouse IL-33 on days 1-3. On day 4 lung ILC2s were isolated and re-stimulated with rIL-33, rIL-2 and rIL-7 with or without α7nAChR agonist (2.5, 10 and 50 μg mL^−1) for 24 hours (FIG. 2A) or 48 hours (FIG. 2B). The levels of IL-5 and IL-13 were measured by ELISA. The viability of cultured ILC2s were assessed by staining with 7-AAD. (FIG. 2C) BALB/cByJ mice were intranasally challenged with recombinant mouse IL-33 on days 1-3, with or without α7nAChR agonist administration. On day 4 lung ILC2s were isolated and the number of IL-5^+ and IL-13^+ cells per 40×10^4 ILC2s were quantified. Values are expressed as the mean±SEM of five experiments (n=5; Student's t test *, p<0.05; **p<0.01).
FIG. 10: α7nAChR agonist suppresses cytokine production in ILC2s. Lung ILC2s were sorted from naïve BALB/cByJ mice and cultured with rm-IL-25 (10 ng mL−1) in the presence or absence of α7nAChR (10 μg mL−1) agonist for 24 hours. The levels of IL-5 and IL-13 were measured by ELISA. Data are representative of at least two independent experiments and are presented as means±SEM (n=4; Student's t test *, p<0.05).
Nicotine is known as a major constituent of cigarette smoke, which causes impairment of lung function and exacerbation of asthma. […] To address this question quantitatively, pulmonary ILC2s were isolated and cultured with increasing doses (2.5, 10 and 50 μg mL^−1) of α7nAChR agonist in the presence of rm-IL-33, rm-IL-2 and rm-IL-7. […] To verify that the actions of the agonist were not due to a reduction in the number of ILC2s, Applicants administered IL-33 to mice in vivo with or without agonist treatment, and then quantified the number of IL-5^+ and IL-13^+ ILC2s within a determined number of ILC2s (FIG. 2C). […]
Murine ILC2s were isolated from BALB/cByJ mice to >95% purity using the FACSARIA III cell sorter. […] Levels of cytokines were measured by ELISA (eBioscience), according to the manufacturer's instructions.

[2] = system: Rag2−/− mice; test: Alternaria alternata-induced AHR in Rag2-deficient mice; format: in vivo, mouse; settings: four consecutive days
From the text: FIGS. 6A-6C: α7nAChR agonist inhibits Alternaria-induced AHR. (FIG. 6A) Rag2-deficient mice intranasally received an extract of Alternaria alternata with or without α7nAChR agonist on days 1-4 according to scheme FIG. 6A. Measurement of lung function and BALF analysis followed on day 5. (FIG. 6B) Lung resistance. (FIG. 6C) Total number of eosinophils in BALF. Total number of lung ILC2s. Data are representative of at least four independent experiments and are presented as means±SEM (n=4; Student's t test *, p<0.05; ***, p<0.001).
It has been previously reported that Alternaria alternata can induce AHR^40. Applicants further explored the anti-inflammatory effects of α7nAChR agonist in ILC2-mediated AHR with this clinically relevant allergen. Rag2^−/− mice were i.n. administered Alternaria alternata extract with or without α7nAChR agonist for four consecutive days (FIG. 6A). […] Accordingly, the number of eosinophils in BALF and lung ILC2s were increased in Alternaria-treated mice. Meanwhile, α7nAChR agonist treatment abolished eosinophils and ILC2s in the lung (FIG. 6C).
Mice were intranasally (i.n.) administered carrier-free recombinant mouse IL-33 (BioLegend, San Diego Calif., 0.5 µg per mouse in 50 µL) with or without […] of α7nAChR agonist (kindly provided by Lin Chen) on three consecutive days. Mice were intranasally (i.n.) administered carrier-free recombinant mouse IL-25 (BioLegend, San Diego Calif., 5 µg per mouse in 50 µL) with or without […] of α7nAChR agonist on three consecutive days. For Alternaria alternata experiments, mice were i.n. administered Alternaria alternata (Greer Labs, Lenoir, N.C., 100 μg per mouse in 50 μL) with or without 125 µg α7nAChR agonist for four consecutive days. One day after the last challenge, mice were anesthetized using i.p. injection of ketamine (10 mg mL^−1) and xylazine (1 mg mL^−1). […] Maximum lung resistance (RL) and minimum compliance (Cdyn) values were recorded during a three-minute period after each methacholine challenge.

[3] = biological target: α7 subtype of nAChR (Homo sapiens, UniProt P36544); settings: cited from earlier work
Sequence of α7 subtype of nAChR (P36544 23-502): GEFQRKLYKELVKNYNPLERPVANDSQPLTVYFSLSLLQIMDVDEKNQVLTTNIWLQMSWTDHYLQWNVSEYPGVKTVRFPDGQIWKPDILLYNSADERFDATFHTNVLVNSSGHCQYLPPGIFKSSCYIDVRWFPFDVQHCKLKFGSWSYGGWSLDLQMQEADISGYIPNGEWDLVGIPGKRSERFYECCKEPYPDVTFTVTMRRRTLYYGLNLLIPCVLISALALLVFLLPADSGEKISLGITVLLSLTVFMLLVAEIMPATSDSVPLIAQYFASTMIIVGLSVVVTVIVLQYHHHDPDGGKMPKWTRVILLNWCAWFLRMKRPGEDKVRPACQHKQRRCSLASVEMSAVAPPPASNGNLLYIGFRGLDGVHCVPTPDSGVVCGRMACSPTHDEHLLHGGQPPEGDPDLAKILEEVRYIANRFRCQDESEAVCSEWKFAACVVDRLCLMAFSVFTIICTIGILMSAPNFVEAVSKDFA

[4] = i.n. Alternaria alternata extract, agonist

For `COc1ccc(/C=C2\CCCN=C2c2cccnc2)c(OC)c1` [GTS-21, 3-[(3E)-3-[(2,4-dimethoxyphenyl)methylidene]-5,6-dihydro-4H-pyridin-2-yl]pyridine], the “viability of cultured ILC2s (7-AAD)” value ([1]; agonist 2.5, 10 and 50 μg mL−1, 24 or 48 hours) was “independent of cell viability except at the highest tested dose”, the “IL-25-induced cytokine secretion (IL-5 and IL-13)” value ([1]; rm-IL-25 10 ng mL−1, agonist 10 μg mL−1, 24 hours) was “susceptible to suppression” and the “IL-5 and IL-13 production from ILC2s (ELISA)” value ([1]; rm-IL-33, rm-IL-2, rm-IL-7, agonist 2.5, 10 and 50 μg mL−1, 24 or 48 hours) was “dose-dependent anti-inflammatory effects”. For the same compound, the “AHR (lung resistance)” value ([2]; i.n. Alternaria alternata extract 100 μg, agonist 125 μg) was “did not develop AHR”, the “eosinophils in BALF” value [2, 4] was “abolished” and the “lung ILC2s” value [2, 4] was “abolished”. For the same compound, the “activation of nAChR subtypes” value [3] was “activates only the α7 subtype to a significant extent”.
